Assay results: patent US12138262B2, “Process of manufacture of a compound for inhibiting the activity of SHP2, as well as products resulting from acid addition” (Novartis AG, priority 2018, dated 2024)

What was measured:
Assay type in all cases: physicochemical
[1] = Dynamic vapor sorption / water content versus relative humidity; conditions: 10% RH to 50% RH at room temperature
Protocol: DVS/Dynamic Vapor Sorption) data were obtained as follows: Dynamic vapor sorption was performed using a SMS Advantage system. Approximately 10 mg of sample was subjected to varying humidities between 0% RH and 95% RH at 25° C. Evaluation was performed using the system software.

[2] = Excipient compatibility: degradation in experimental excipient mixtures at 50° C./75% RH
[3] = Form conversion in aqueous organic solvent mixtures; conditions: aqueous organic solvent mixtures with very small quantities of water (1-2%)

SMILES: C[C@@H]1OCC2(CCN(c3cnc(Sc4ccnc(N)c4Cl)c(N)n3)CC2)[C@@H]1N.C[C@@H]1OCC2(CCN(c3cnc(Sc4ccnc(N)c4Cl)c(N)n3)CC2)[C@@H]1N.O.O=C(O)CCC(=O)O.O=C(O)CCC(=O)O [Example 6, (3S,4S)-8-(6-amino-5-((2-amino-3-chloropyridin-4-yl)thio)pyrazin-2-yl)-3-methyl-2-oxa-8-azaspiro[4.5]decan-4-amine, succinate (1:1) hemihydrate, modification (form) HA]
- water content over 10% RH to 50% RH [1]: constant water content
- degradation levels in excipient mixtures ([2]; all four experimental excipient mixtures (Mixtures 1-4)): acceptable degradation levels

SMILES: C[C@@H]1OCC2(CCN(c3cnc(Sc4ccnc(N)c4Cl)c(N)n3)CC2)[C@@H]1N.O=C(O)CCCCC(=O)O [Example 10, (3S,4S)-8-(6-amino-5-((2-amino-3-chloropyridin-4-yl)thio)pyrazin-2-yl)-3-methyl-2-oxa-8-azaspiro[4.5]decan-4-amine adipate (1:1), Modification A]
- degradation with mixture containing mannitol, Ac-di-Sol and microcrystalline cellulose ([2]; mixture containing mannitol, Ac-di-Sol and microcrystalline cellulose (Mixture 4)): strong degradation

SMILES: C[C@@H]1OCC2(CCN(c3cnc(Sc4ccnc(N)c4Cl)c(N)n3)CC2)[C@@H]1N.O=C(O)CCC(=O)O [Example 11, (3S,4S)-8-(6-amino-5-((2-amino-3-chloropyridin-4-yl)thio)pyrazin-2-yl)-3-methyl-2-oxa-8-azaspiro[4.5]decan-4-amine, succinate (1:1), anhydrous form, Modification A]
- conversion of solid form [3]: rapidly converted into Modification HA

SMILES: C[C@@H]1OCC2(CCN(c3cnc(Sc4ccnc(N)c4Cl)c(N)n3)CC2)[C@@H]1N [Example 13, (3S,4S)-8-(6-amino-5-((2-amino-3-chloropyridin-4-yl)thio)pyrazin-2-yl)-3-methyl-2-oxa-8-azaspiro[4.5]decan-4-amine free base Modification A]
- degradation with excipient mixture containing HPMC ([2]; mixture containing HPMC (Mixture 2)): strong degradation
